In patent US11136320B2, “Fused ring derivative used as FGFR4 inhibitor” (JACOBIO PHARMACEUTICALS CO., LTD., priority 2019, dated 2021):
Where two headings read alike, the source gives them in different places.

Legend:
FGFR4 kinase [1] = target: T1, FGFR4 kinase (Homo sapiens (Human), UniProt P22455); experiment: biochemical
[2] = test system: Hepatoma cell Hep3B (high expression of FGFR4 and FGF19); experiment: Hepatoma cell proliferation inhibition experiment (MTS method); assay type: cell-based; settings: for IC50: Homo sapiens, Hep3B, read-out: Hep3B(IC50 μM)
Excerpt: In this experiment, the MTS method was used to test the inhibitory effect of the compounds on the proliferation of Hepatoma cell Hep3B (high expression of FGFR4 and FGF19), and the half inhibitory concentration IC50 of the compounds to Hep3B was obtained. The Hep3B cell line was purchased from ATCC, and the complete culture medium of the Hep3B cell line was MEM+10% FBS+1% PS. MEM cell culture medium, fetal bovine serum, and trypsin were purchased from Gibco, cell culture flasks were purchased from Greiner, and disposable Cell Counting Plate and Taittinger Blue Solution were purchased from Bio-Rad.
(1) 100 μl Hepatoma cell Hep3B suspension was seeded in a 96-well cell culture plate, and the density of each well was 2.0×10^4 cells/ml.
(3) A mixture of MTS (3-(4,5-dimethylthiazol-2-yl)-5-(3-carboxymethoxyphenyl)-2-(4-sulfophenyl)-2H-tetrazolium)/PMS (phenazine methosulfate) was added into each well for coloration, and MTS/PMS in the mixture was at a ratio of 20:1 (ml:ml). 30 μl of the mixture was added into each well of the culture plate above mentioned in step (2), then the culture plate was incubated for 3 h in the incubator.
(5) The inhibition rate was calculated by the […];
(6) According to the inhibition rate of the different concentrations, the IC50 values of the compounds were obtained by curve fitting.

FGFR4 kinase [3] = target: T1, FGFR4 kinase
PK analysis of rats = assay type: in vivo; settings: SD rats, p.o. (10 mg/kg); for AUC(0-t) / Cmax: rat, plasma, po; for AUC(0-t): read-out: Curve area AUC0-24 h; for Cmax: read-out: Drug concentration in blood Cmax
Description: In the present invention, the pharmacokinetics experiment of the compounds in rats was performed using the SD rats (Vitolihua).
(1) Mode of administration: single gavage administration and intravenous injection administration.
(2) Dosage: 10 mg/kg in the gavage administration, 3 mg/kg in the intravenous injection administration.
Gavage administration: before administration, 15 min, 30 min, 1 h, 2 h, 4 h, 6 h, 8 h, 24 h; […]
(4) Sample processing: 200 μL of orbital blood was collected at each sampling time point. After anticoagulation with heparin, the blood was centrifuged at 5500 rpm for 10 min, and 60 μL of the supernatant was taken and put into the refrigerator at −80° C. for waiting for testing.
Samples obtained after administration of Compound 1 were tested using 4000 LC-MS/MS analyzer, wherein, the chromatographic separation conditions for testing were:
Samples obtained after administration of Compound 7 were tested using 4000 LC-MS/MS analyzer, wherein, the chromatographic separation conditions for testing were:
Samples obtained after administration of Compound 16 were tested using 4000 LC-MS/MS analyzer, wherein, the chromatographic separation conditions for testing were: […]

T1 sequence (P22455 22-802): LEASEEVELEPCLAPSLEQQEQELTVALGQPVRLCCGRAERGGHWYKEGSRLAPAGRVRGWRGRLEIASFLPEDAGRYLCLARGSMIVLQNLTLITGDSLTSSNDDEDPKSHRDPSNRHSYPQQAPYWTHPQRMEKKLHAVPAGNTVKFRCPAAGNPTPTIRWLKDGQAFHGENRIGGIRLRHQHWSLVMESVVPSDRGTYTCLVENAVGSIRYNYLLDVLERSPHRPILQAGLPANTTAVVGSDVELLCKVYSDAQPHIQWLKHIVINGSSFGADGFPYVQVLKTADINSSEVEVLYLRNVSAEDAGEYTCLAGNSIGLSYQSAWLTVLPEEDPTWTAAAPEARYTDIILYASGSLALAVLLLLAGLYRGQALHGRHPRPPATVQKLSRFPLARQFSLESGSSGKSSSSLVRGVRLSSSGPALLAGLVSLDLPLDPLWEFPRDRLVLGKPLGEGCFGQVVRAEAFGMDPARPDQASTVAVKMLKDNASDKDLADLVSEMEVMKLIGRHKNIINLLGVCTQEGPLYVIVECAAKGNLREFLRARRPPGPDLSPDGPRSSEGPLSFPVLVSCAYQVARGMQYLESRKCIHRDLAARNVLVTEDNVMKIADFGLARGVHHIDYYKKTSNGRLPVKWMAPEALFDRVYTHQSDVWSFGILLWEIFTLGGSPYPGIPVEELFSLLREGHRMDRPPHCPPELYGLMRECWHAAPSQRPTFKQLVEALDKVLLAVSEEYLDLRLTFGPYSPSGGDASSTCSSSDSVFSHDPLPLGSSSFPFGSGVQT

SMILES | IC50 (FGFR4 kinase [1]) | IC50 ([2]; 120 h incubation) | inhibitory effect on FGFR4 compared with the reference compound (FGFR4 kinase [3]) | inhibitory effect on Hepatoma cell Hep3B compared with the reference compound [2] | exposure amount AUC0-24 h and maximum drug concentration in blood Cmax compared with the reference compound (PK analysis of rats) | AUC(0-t) (PK analysis of rats) | Cmax (PK analysis of rats) | IC50 ([2]; 120 h)
CN1CCN(Cc2cc3c(nc2C=O)N(C(=O)Nc2cc(NCCSC(F)(F)F)c(C#N)cn2)CCC3)C(=O)C1 [Compound 62, N-(5-cyano-4-((2-((trifluoromethyl)thio)ethyl)amino)pyridin-2-yl)-7-formyl-6-((4-methyl-2-oxopiperazin-1-yl)methyl)-3,4-dihydro-1,8-naphthyridine-1(2H)-carboxamide] | 1.7 nM | 0.054 µM | better inhibitory effect on FGFR4 than the reference compound | – | – | – | – | –
CSC[C@@H](C)Nc1cc(NC(=O)N2CCCc3cc(CN4CCCC4=O)c(C=O)nc32)ncc1C#N [Compound 7, (R)—N-(5-cyano-4-((1-(methylthio)propan-2-yl)amino)pyridin-2-yl)-7-formyl-6-((2-oxopyrrolidine-1-yl)methyl)-3,4-dihydro-1,8-naphthyridine-1 (2H)-carboxamide] | 1.5 nM | 0.011 µM | better inhibitory effect on FGFR4 than the reference compound | better inhibitory effect | significantly higher than the reference compound | 2850 ng·h/mL | 736 ng/mL | –
CSCCCNc1cc(NC(=O)N2CCCc3cc(CN4CCN(C)CC4=O)c(C=O)nc32)ncc1C#N [Compound 64, N-(5-cyano-4-((3-(methylthio)propyl)amino)pyridin-2-yl)-7-formyl-6-((4-methyl-2-oxopiperazin-1-yl)methyl)-3,4-dihydro-1,8-naphthyridine-1(2H)-carboxamide] | 1.6 nM | 0.018 µM | better inhibitory effect on FGFR4 than the reference compound | better inhibitory effect | – | – | – | –
CN1CCN(Cc2cc3c(nc2C=O)N(C(=O)Nc2cc(NCCS(C)(=O)=O)c(C#N)cn2)CCC3)C(=O)C1.Cl [Compound 72, N-(5-cyano-4-((2-(methyl-sulfonyl)ethyl)amino)pyridin-2-yl)-7-formyl-6-((4-methyl-2-oxopiperazin-1-yl)methyl)-3,4-dihydro-1,8-naphthyridine-1(2H)-carboxamide hydrochloride] | 2 nM | 0.282 µM | better inhibitory effect on FGFR4 than the reference compound | – | – | – | – | –
CN1CCN(Cc2cc3c(nc2C=O)N(C(=O)Nc2cc(NCC[S+](C)[O-])c(C#N)cn2)CCC3)C(=O)C1 (stereo not drawn) [Compound 27, N-(5-cyano-4-((2-(methyl-sulfinyl)ethyl)amino)pyridin-2-yl)-7-formyl-6-((4-methyl-2-oxopiperazin-1-yl)methyl)-3,4-dihydro-1,8-naphthyridine-1(2H)-carboxamide] | 2.4 nM | 0.282 µM | better inhibitory effect on FGFR4 than the reference compound | – | – | – | – | –
CSC(C)(C)CNc1cc(NC(=O)N2CCCc3cc(CN4CCN(C)CC4=O)c(C=O)nc32)ncc1C#N [Compound 6, N-(5-cyano-4-((2-methyl-2-(methylthio)propyl)amino)pyridin-2-yl)-7-formyl-6-((4-methyl-2-oxopiperazin-1-yl)methyl)-3,4-dihydro-1,8-naphthyridine-1 (2H)-carboxamide] | 2.1 nM | – | better inhibitory effect on FGFR4 than the reference compound | – | – | – | – | 0.049 µM
CSCCNc1cc(NC(=O)N2CCCc3cc(CN(C)C(=O)C4CCOC4)c(C=O)nc32)ncc1C#N.Cl (stereo not drawn) [Compound 76, N-(5-cyano-4-((2-(methylthio)ethyl)amino)pyridin-2-yl)-7-formyl-6-((N-methyltetrahydrofuran-3-carboxamido)methyl)-3,4-dihydro-1,8-naphthyridine-1(2H)-carboxamide hydrochloride] | 2.1 nM | 0.006 µM | better inhibitory effect on FGFR4 than the reference compound | better inhibitory effect | – | – | – | –
CN1CCN(Cc2cc3c(nc2C=O)N(C(=O)Nc2cc(NC4CCSC4)c(C#N)cn2)CCC3)C(=O)C1 (stereo not drawn) [Compound 5, N-(5-cyano-4-((tetrahydrothiophene-3-yl)amino)pyridin-2-yl)-7-formyl-6-((4-methyl-2-oxopiperazin-1-yl)methyl)-3,4-dihydro-1,8-naphthyridine-1 (2H)-carboxamide] | 2 nM | – | better inhibitory effect on FGFR4 than the reference compound | – | significantly higher than the reference compound | 6730 ng·h/mL | 1400 ng/mL | –
CSCCNc1cc(NC(=O)N2CCCc3cc(CN(C)C(=O)[C@@H]4CCCO4)c(C=O)nc32)ncc1C#N.Cl [Compound 75, (S)-N-(5-cyano-4-((2-(methylthio)ethyl)amino)pyridin-2-yl)-7-formyl-6-((N-methyltetrahydrofuran-2-carboxamido)methyl)-3,4-dihydro-1,8-naphthyridine-1(2H)-carboxamide hydrochloride] | 1.8 nM | 0.028 µM | better inhibitory effect on FGFR4 than the reference compound | – | – | – | – | –
CSCCNc1cc(NC(=O)N2CCCc3cc(CN(C)C(=O)C4CCOCC4)c(C=O)nc32)ncc1C#N.Cl [Compound 73, N-(5-cyano-4-((2-(methyhthio)ethyl)amino)pyridin-2-yl)-7-formyl-6-((N-methyltetrahydro-2H-pyran-4-carboxamido)methyl)-3,4-dihydro-1,8-naphthyridine-1(2H)-carboxamide hydrochloride] | 2.3 nM | 0.039 µM | better inhibitory effect on FGFR4 than the reference compound | – | – | – | – | –
CN1CCN(Cc2cc3c(nc2C=O)N(C(=O)Nc2cc(NCc4nccs4)c(C#N)cn2)CCC3)C(=O)C1 [Compound 56, N-(5-cyano-4-((thiazol-2-yl-methyl)amino)pyridin-2-yl)-7-formyl-6-((4-methyl-2-oxopiperazin-1-yl)methyl)-3,4-dihydro-1,8-naphthyridine-1(2H)-carboxamide] | 1.6 nM | 0.013 µM | better inhibitory effect on FGFR4 than the reference compound | better inhibitory effect | significantly higher than the reference compound | 2010 ng·h/mL | 548 ng/mL | –
